# From patent publication US20230271949A1, “GLP-1R MODULATING COMPOUNDS” (ASCLETIS BIOSCIENCE CO., LTD., priority 2022, published 2023)
# Biological target: GLP-1R (Homo sapiens, UniProt P43220)
# Test: GLP-1R agonist cAMP stimulation assay (HTRF cAMP)
# Assay type: cell-based
# Conditions: HEK293 cell line expressing GLP-1 target; HTRF cAMP agonist mode, 30 min at RT
# How it was run: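 GLP-1R-expressing cells were stimulated with 10-point, 3-fold compound dilutions for 30 min at RT; HTRF cAMP detection reagents were then added for 60 min and the 665/615 ratio read. Ratios were converted to cAMP via a standard curve and % activity scaled between DMSO and top-concentration GLP-1(7-37) reference wells.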
# GLP-1R, sequence (P43220 24-463): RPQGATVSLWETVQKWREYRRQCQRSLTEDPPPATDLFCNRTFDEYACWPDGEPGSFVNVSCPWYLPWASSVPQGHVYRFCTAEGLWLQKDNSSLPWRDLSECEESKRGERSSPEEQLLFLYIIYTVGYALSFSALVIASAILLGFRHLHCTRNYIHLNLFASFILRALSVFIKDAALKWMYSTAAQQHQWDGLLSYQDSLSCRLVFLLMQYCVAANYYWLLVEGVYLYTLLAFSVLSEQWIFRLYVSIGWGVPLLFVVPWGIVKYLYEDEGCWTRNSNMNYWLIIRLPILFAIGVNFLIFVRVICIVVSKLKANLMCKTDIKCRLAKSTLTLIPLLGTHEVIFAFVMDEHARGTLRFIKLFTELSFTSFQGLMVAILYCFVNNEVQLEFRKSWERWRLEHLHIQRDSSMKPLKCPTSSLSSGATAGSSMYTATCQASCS
row,Compound,EC50 [nM]
1,Cc1c(C#N)sc(COc2cccc(C3=CCN(Cc4nc5cc(NC(=O)c6ccc7[nH]nc(C)c7c6)ccc5n4C[C@@H]4CCO4)CC3)n2)c1F [Compound 361],0.9
2,"Cc1n[nH]c2ccc(C(=O)Nc3ccc4c(c3)nc(CN3CC=C(c5cccc(OCc6ccc(Cl)cc6F)n5)CC3)n4C[C@@H]3CCO3)cc12 [Compound 4, (S)—N-(2-((6-((4-chloro-2-fluorobenzyl)oxy)-3′,6′-dihydro-[2,4′-bipyridin]-1′(2′H)-yl)methyl)-1-(oxetan-2-ylmethyl)-1H-benzo[d]imidazol-5-yl)-3-methyl-1H-indazole-5-carboxamide]",0.14
3,Cc1n[nH]c2ccc(NC(=O)c3ccc4c(c3)nc(CN3CC=C(c5cccc(OCc6ccc(Cl)cc6F)n5)CC3)n4C[C@@H]3CCO3)nc12 [Compound 191],3.69
4,O=C(Nc1ccc2[nH]nc(C(F)F)c2c1)c1ccc2c(c1)nc(CN1CCC(c3cccc(OCc4ccc(Cl)cc4F)n3)CC1)n2C[C@@H]1CCO1 [Compound 115],0.87
5,Cc1n[nH]c2c(F)cc(C(=O)Nc3ccc4c(c3)nc(CN3CC=C(c5cccc6c5OC(C)(c5ccc(Cl)cc5F)O6)CC3)n4CC3CCO3)cc12 (stereo not drawn) [Compound 304],0.18
6,Cc1n[nH]c2cc(F)c(NC(=O)c3ccc4c(c3)nc(CN3CC=C(c5cccc(OCc6ccc(Cl)cc6F)n5)CC3)n4C[C@@H]3CCO3)cc12 [Compound 174],2.13
7,CC1(c2ccc(Cl)cc2F)Oc2cccc(C3CCN(Cc4nc5cc(C(=O)Nc6ccc7[nH]nc(C(F)(F)F)c7c6)ccc5n4CC4CCO4)CC3)c2O1 (stereo not drawn) [Compound 333],2.19
8,O=C(Nc1ccc2nc(CN3CC=C(c4cccc(OCc5ccc(Cl)cc5F)n4)CC3)n(C[C@@H]3CCO3)c2c1)c1cc(C(F)(F)F)c2c(c1)C1(CC1)C(=O)N2 [Compound 288],3.87
9,CC(C)c1n[nH]c2ccc(C(=O)Nc3ccc4c(c3)nc(CN3CC=C(c5cccc(OCc6ccc(Cl)cc6F)n5)CC3)n4C[C@@H]3CCO3)cc12 [Compound 200],0.82
10,COCCn1c(CN2CCC(c3cccc(OCc4ccc(Cl)cc4F)n3)CC2)nc2cc(C(=O)NCc3ccc(O)c(OC)c3)ccc21 [Compound 28],75.7
11,Cc1n[nH]c2c(F)cc(NC(=O)c3ccc4c(c3)nc(CN3CC=C(c5cccc6c5O[C@@](C)(c5ccc(C#N)cc5F)O6)CC3)n4CC3CCO3)cc12 (stereo partly drawn) [Compound 298],0.37
12,Cc1n[nH]c2c(Cl)cc(NC(=O)c3ccc4c(c3)nc(CN3CC=C(c5cccc6c5O[C@@](C)(c5ccc(Cl)cc5F)O6)C[C@@H]3C)n4CC3CCO3)cc12 (stereo partly drawn) [Compound 329],1.66
13,COCCn1c(Cc2ccc(-c3cccc(OCc4ccc(C#N)cc4F)n3)cc2)nc2cc(C(=O)NCC(O)c3ccc(O)cc3)ccc21 (stereo not drawn) [Compound 11],567
14,O=C(Nc1ccc2c(c1)nc(CN1CC=C(c3cccc(OCc4ccc(Cl)cc4F)n3)CC1)n2C[C@@H]1CCO1)c1ccc2[nH]nc(F)c2c1 [Compound 202],2.21
15,O=C(Nc1cc(C(F)(F)F)c2[nH]ncc2c1)c1ccc2c(c1)nc(CN1CCC(c3cccc(OCc4ccc(Cl)cc4F)n3)CC1)n2C[C@@H]1CCO1 [Compound 108],2.39
16,Cc1cc(NC(=O)c2ccc3c(c2)nc(CN2CCC(c4cccc5c4OC(C)(c4ccc(Cl)cc4F)O5)CC2)n3C[C@@H]2CCO2)cc2[nH]c(=O)[nH]c12 (stereo partly drawn) [Compound 339],0.39
17,O=C(Nc1ccc2ncsc2c1)c1ccc2c(c1)nc(CN1CC=C(c3cccc(OCc4ccc(Cl)cc4F)n3)CC1)n2C[C@@H]1CCO1 [Compound 150],5.78
18,Cc1cc2c(C#N)ccc(COc3cccc(C4CCN(Cc5nc6cc(NC(=O)c7ccc8[nH]nc(C)c8c7)ccc6n5C[C@@H]5CCO5)CC4)n3)c2o1 [Compound 370],5.12
19,Cc1n[nH]c2ccc(NC(=O)c3ccc4c(c3)nc(CN3CCC(c5cccc(OCc6ccc(C#N)c7ccccc67)n5)CC3)n4C[C@@H]3CCO3)cc12 [Compound 378],1.03
20,Cc1n[nH]c2ccc(C(=O)Nc3ccc4c(c3)nc(CN3CC=C(c5cccc6c5OC(C)(c5ccc(Cl)cc5F)O6)CC3)n4CC3CCO3)cc12 (stereo not drawn) [Compound 306],0.56
21,Cc1n[nH]c2c(F)cc(NC(=O)c3ccc4nc(CN5CC=C(c6cccc(OCc7ccc(C#N)cc7F)n6)CC5)n(CC5CCO5)c4c3)cc12 (stereo not drawn) [Compound 274],1.65
22,Cc1n[nH]c2ncc(NC(=O)c3ccc4c(c3)nc(CN3CCC(c5cccc(OCc6ccc(Cl)cc6F)n5)CC3)n4C[C@@H]3CCO3)cc12 [Compound 79],76.5
23,CC1(c2ccc(C#N)cc2F)Oc2cccc(C3CCN(Cc4nc5cc(NC(=O)c6ccc7[nH]nc(C8CC8)c7c6)ccc5n4CC4CCO4)CC3)c2O1 (stereo not drawn) [Compound 348],0.91
24,Cc1cc(C(=O)Nc2ccc3c(c2)nc(C2CC24CCN(c2cccc(OCc5ccc(Cl)cc5F)n2)CC4)n3C[C@@H]2CCO2)cc2c1NC(=O)C21CC1 (stereo partly drawn) [Compound 247],0.83
25,Cc1n[nH]c2c(Cl)cc(NC(=O)c3ccc4c(c3)nc(CN3CC=C(c5cccc6c5OC(C)(c5ccc(Cl)cc5F)O6)CC3)n4CC3CCO3)cc12 (stereo not drawn) [Compound 293],0.99
26,O=C(O)CNC(=O)c1ccc2c(c1)nc(CN1CCC(c3cccc(OCc4ccc(Cl)cc4F)n3)CC1)n2C[C@@H]1CCO1 [Compound 50],34

row,Compound,EC50 [nM]
1,O=C(Nc1ccc2[nH]nc(C3CC3)c2c1)c1ccc2c(c1)nc(CN1CCC(c3cccc(OCc4ccc(Cl)cc4F)n3)CC1)n2C[C@@H]1CCO1 [Compound 112],6.18
2,COCCn1c(CN2CCC(c3cccc(OCc4ccc(Cl)cc4F)n3)CC2)nc2cc(C(=O)NC3Cc4cc(C)c(O)cc4C3)ccc21 (stereo not drawn) [Compound 43],256
3,N#Cc1ccc(COc2cccc(C3=CCN(Cc4nc5cc(NC(=O)c6ccc7[nH]nc(C(F)(F)F)c7c6)ccc5n4C[C@@H]4CCO4)CC3)n2)c(F)c1 [Compound 232],1.26
4,Cc1n[nH]c2c(F)cc(NC(=O)c3cc4c(nc(CN5CC=C(c6cccc(OCc7ccc(Cl)cn7)n6)CC5)n4C[C@@H]4CCO4)s3)cc12 [Compound 406],99.2
5,Cc1cc(NC(=O)c2ccc3c(c2)nc(CN2CCC(c4cccc(OCc5ccc(Cl)cc5F)n4)CC2)n3C[C@@H]2CCO2)c(F)c2c(C)n[nH]c12 [Compound 121],4.23
6,Cc1cc(NC(=O)c2ccc3c(c2)nc(CN2CC=C(c4cccc(OCc5ccc(Cl)cc5F)n4)CC2)n3C[C@@H]2CCO2)c(F)c2c(C)n[nH]c12 [Compound 175],1.23
7,Cc1n[nH]c2ccc(NC(=O)c3ccc4c(c3)nc(CN3CCC(c5cccc(OCc6c(F)cnc7ccccc67)n5)CC3)n4C[C@@H]3CCO3)cc12 [Compound 380],6.91
8,O=C(Nc1ccc2[nH]nnc2c1)c1ccc2c(c1)nc(CN1CCC(c3cccc(OCc4ccc(Cl)cc4F)n3)CC1)n2C[C@@H]1CCO1 [Compound 193],0.21
9,COCCn1c(CN2CCC(c3cccc(OCc4ccc(Cl)cc4F)n3)CC2)nc2cc(C(=O)NCCCc3ccc(O)cc3)ccc21 [Compound 25],756
10,O=C(Nc1nc2[nH]cnc2o1)c1ccc2c(c1)nc(CN1CC=C(c3cccc(OCc4ccc(Cl)cc4F)n3)CC1)n2C[C@@H]1CCO1 [Compound 404],19.8
11,Cc1cc(NC(=O)c2ccc3c(c2)nc(CN2CC=C(c4cccc(OCc5ccc(C#N)cc5F)n4)CC2)n3C[C@@H]2CCO2)cc2c(C3CC3)n[nH]c12 [Compound 185],1.32
12,C[C@H](NC(=O)c1ccc2c(c1)nc(CN1CC=C(c3cccc(OCc4ccc(Cl)cc4F)n3)CC1)n2C[C@@H]1CCO1)C(=O)N1CC(F)(F)C[C@H]1C(=O)O [Compound 73],0.52
13,N#Cc1ccc(COc2cccc(C3=CCN(Cc4nc5cc(NC(=O)c6cc(F)c7c(c6)C6(CC6)C(=O)N7)ccc5n4C[C@@H]4CCO4)CC3)n2)c(F)c1 [Compound 226],0.12
14,CC1(c2ccc(Cl)cc2F)Oc2cccc(C3=CCN(Cc4nc5cc(C(=O)Nc6ccc7[nH]nc(F)c7c6)ccc5n4CC4CCO4)CC3)c2O1 (stereo not drawn) [Compound 292],8.73
15,O=C(N[C@@H](Cc1cnc[nH]1)C(=O)O)c1ccc2c(c1)nc(CN1CCC(c3cccc(OCc4ccc(Cl)cc4F)n3)CC1)n2C[C@@H]1CCO1 [Compound 53],114
16,Cc1c(C#N)sc(COc2cccc(C3CCN(Cc4nc5cc(NC(=O)c6ccc7[nH]nc(C)c7c6)ccc5n4C[C@@H]4CCO4)CC3)n2)c1F [Compound 373],0.39
17,O=C(Nc1ccc2nc(CN3CC=C(c4cccc(OCc5ccc(Cl)cc5F)n4)CC3)n(C[C@@H]3CCO3)c2c1)c1ccc2c(c1)C1(CC1)C(=O)N2 [Compound 281],1.21
18,O=C(Nc1ccc2[nH]ncc2c1)c1ccc2c(c1)nc(CN1CCC(c3cccc(OCc4ccc(Cl)cc4F)n3)CC1)n2C[C@@H]1CCO1 [Compound 87],10.1
19,O=C(Nc1ccc2c(c1)nc(CN1CC=C(c3cccc(OCc4ccc(Cl)cc4F)n3)CC1)n2C[C@@H]1CCO1)c1cc(C(F)(F)F)c2[nH]ncc2c1 [Compound 212],2.96
20,O=C(Nc1ccc2c(c1)nc(CN1CC=C(c3cccc(OCc4ccc(Cl)cn4)n3)CC1)n2C[C@@H]1CCO1)c1cc(C(F)(F)F)c2c(c1)C1(CC1)C(=O)N2 [Compound 211],1.02
21,Cc1cc(NC(=O)c2ccc3c(c2)nc(CN2CCC(c4cccc(OCc5ccc(C#N)cc5F)n4)CC2)n3C[C@@H]2CCO2)cc2c1NC(=O)C21CC1 [Compound 124],0.17
22,CCn1cncc1Cn1c(CN2CC=C(c3cccc4c3OC(C)(c3ccc(Cl)cn3)O4)CC2)nc2cc(NC(=O)c3cc(F)c4[nH]nc(C)c4c3)ccc21 (stereo not drawn) [Compound 410],0.31
23,Cc1cc(NC(=O)c2ccc3c(c2)nc(CN2CCC(c4cccc(OCc5ccc(C#N)cc5F)n4)CC2)n3C[C@@H]2CCO2)cc2c(C(F)F)n[nH]c12 [Compound 132],0.74
24,O=C(Nc1cc(C(F)(F)F)c2[nH]nc(C3CC3)c2c1)c1ccc2c(c1)nc(CN1CC=C(c3cccc(OCc4ccc(Cl)cc4F)n3)CC1)n2C[C@@H]1CCO1 [Compound 163],0.99
25,Cc1n[nH]c2ccc(NC(=O)c3ccc4c(c3)nc(CN3CCC(c5cccc(OCc6ccc(C#N)cc6F)n5)CC3)n4C[C@@H]3CCO3)cc12 [Compound 133],0.38
